Source: patent US12252472B1, “Barbituric acid derivatives, their preparation and use thereof as leukocyte transmigration inhibitors and for treating inflammatory diseases, autoimmune diseases and cancer” (BAR-ILAN UNIVERSITY, priority 2017, dated 2025)
“Also recorded” adds a separate entry of the source.

Assays:
[1] = system: HUVECs intercellular junctions; experiment: Phenotypic changes at endothelial junctions (MesenFlow system); type: cell-based, human
Source text: This manifestation was termed “Fluttering”. Fluttering was characterized by a rapid fluctuating movement at the intercellular junctions of adjacent HUVECs, and predominantly within tri-cellular corners. This was characterized by a rapid change in phase at the cellular edges consistent with a physical movement that was associated with no leukocytes adhesion or migration within these regions (FIG. 27). […] This observation is therefore representative of a phenotype that is indicative of a disruption in leukocyte transmigration.

[2] = system: B cells; experiment: B-lymphocyte adhesion and transmigration, MesenFlow assay; type: cell-based; conditions: 30 μM
Description: Flow assays were conducted as described in a previous study (Bradfield, P. F., et al., JAM-C regulates unidirectional monocyte transendothelial migration in inflammation. Blood, 2007. 110(7): p. 2545-55). HUVECs were cultured at 1×10^5 cells/slide on Ibidi 6-chamber slides (80606; Ibidi) before treatment with TNFα (500 U/mL) for 6-10 hours. An individual chamber outlet was then attached to a calibrated pump (74 900; Cole Partner, Vernon Hills, IL) and flow was generated by perfusing wash buffer (M199 with 0.15% BSA) or a monocyte suspension (2.5×10^6 cells/mL) over the HUVEC monolayer. The flow rate was representative of shear rates in small venules (0.05 Pa). Observations made using phase-contrast microscopy (Model: Axiovert 100; Objective: 20×/0.3 NA air; Carl Zeiss) were recorded using a high-resolution camera (D70; Nikon, Zurich, Switzerland). Individual images were recorded every 30 seconds with Nikon capture software (v4.2) and compiled into movie sequences using Adobe Photoshop (CS6) and Image J (v1.5d), allowing analysis of individual monocytes over large areas. The tested compounds, e.g. compounds of the general Formula (I), were maintained at the specified concentration in all wash buffers throughout the course of the experiment. The compounds were preincubated separately on both HUVECs and monocytes 15 minutes prior to flow co-culture. […]

[3] = system: DBA/1 mice; experiment: Collagen induced arthritis (CIA) model; type: in vivo, mouse
Description: Male DBA/lOlaHsd mice (7-8 weeks of age) were injected with CII (Type II collagen)+CFA (complete Frennd's adjuvant) emulsion on Day 0 (S.C.) to persuade collagen induced arthritis (CIA). On Day 21 the animals receive the same amount of the emulsion as a booster. Twice between Days 0 and 18 after immunization (before enrollment begins), both hind paws of all mice were measured using calipers to establish baseline values for paw thickness. On Day 22 mice were enrolled into groups when they first shown paw swelling and treatment was initiated. A working formulation of compound of Formula 2 was administered by IP injections at 15 mg/kg dose at q3w regiment. Mock treated (vehicle) control group was administered IP with the same volume and regiment as a treatment group. Administration was performed at a constant volume dosage based on individual body weight. The severity of CIA was monitored daily. The CIA scoring is on the scale of 0 to 16 (0 to 4 for each paw, adding the scores for all 4 paws). On day 43 (24 hours post last dose administration) all paws thickness was measured and mice were euthanized. All limbs from each mouse were placed in individual labeled tubes, fixed in 4% buffered formalin, paraffin embedded and sectioned. Histological score was assessed using hematoxylin and eosin (H&E) stained sections. Joints were scored for inflammation, cartilage damage, pannus formation, and bone resorption on a scale of 0 to 3 for each readout. Two-way ANOVA statistical analysis was performed.

[4] = system: human B-lymphoma cells; experiment: B-lymphoma homing assay in NOD.CB17-Prkdcscid/J mice; type: in vivo
Description: Effect on the homing of the B-lymphocytes was tested in a model of B-cell lymphoma. Compound of Formula 2 (7.5 μM) was injected IV, together with 10×10^6 human B-lymphoma cells. After one and a half hours the amount of B-lymphocytes was tested in different organs.

[5] = system: C57BL/6J mice; experiment: High-fat-diet induced non-alcoholic fatty liver disease (NAFLD) model; type: in vivo, mouse; conditions: 15 mg/kg SC or IP q3w; 30 mg/kg PO qd; 65 days
Description: Male C57BL/6J (Envigo, Israel) mice (3-4 weeks of age) were fed ad libitum a high fat, no high carbohydrate diet (modified Western diet, WD) with 42% kcal from fat and containing 0.1% cholesterol (Harlan TD.88137) with normal water (without high fructose-glucose solution) for […] prior to treatment initiation. Control mice were fed a standard chow diet (CD, Harlan TD.7012) with normal water (NW). Compound of Formula 2 was administrated on the 85th day of the high fat diet (15 mg/kg, for S.C and IP at q3w regiment; 30 mg/kg for PO at qd regiment) for 65 days. Mock treated (vehicle) control group was administrated with IP injections at the same volume and regiment as a corresponding treated group for 65 days. Body weight of animals was determined prior to the treatment initiation and the administered volume of the compound of Formula 2 was adjusted according to the body weight. All animals were euthanized 24 hours post last dose administration. At necropsy liver and mesenteric fat wet weights were determined. Liver and mesenteric fat were fixed with 4% buffered formalin, embedded in paraffin, sections and H&E stained. Steatohepatitis was defined by the presence of steatosis, inflammation and hepatocellular ballooning, as per the FLIP algorithm. The severity of steatosis, lobular inflammation and hepatocellular ballooning were scored using the NASH-Clinical Research Network (CRN) criteria. NAFLD activity score (NAS) was calculated by adding the scores of: steatosis (maximal score 3) is defined by more than 66% of hepatocytes containing fat droplets; lobular inflammation (maximal score 3) is defined by >4 foci/200 field; hepatocyte ballooning (maximal score 2) is defined by many cells/prominent ballooning. Ordinary one-way ANOVA statistical analysis was performed.

[6] = 7.5 μM IV together with 10×10^6 cells, after one and a half hours

Structure (SMILES): COC(=O)c1ccc(COc2c(C=C3C(=O)NC(=O)NC3=O)cccc2C(C)(C)C)cc1 [Formula 2, methyl 4-((2-(tert-butyl)-6-((2,4,6-trioxotetrahydropyrimidin-5(2H)-ylidene)methyl)phenoxy)methyl) benzoate]
- junctional integrity ([1]; HUVECs co-culture): maintained
- Fluttering at HUVEC intercellular junctions ([1]; all HUVECs co-culture experiments): observed
- B cell adhesion and transmigration [2]: dramatic blocking effect
- Histological score of joints ([3]; 15 mg/kg IP q3w): significantly reduced
- fore and hind limb thickness ([3]; 15 mg/kg IP q3w, day 43): significantly reduced
- CIA score ([3]; FIG. 23 legend: 15 mg/kg SC): therapeutic effect
- histological evaluation of talus and calcaneum joint sections ([3]; representative sections, treated mouse (FIG. 25B)): No cartilage and bone and erosion and profuse infiltration of inflammatory cells are present
- homing of the cancer cells to the spleen and liver ([4]; 7.5 μM IV): significantly blocked
- reduction of B-lymphocyte homing in liver [4, 6]: around 33%
- reduction of B-lymphocyte homing in spleen [4, 6]: around 22%
- NAFLD activity score [5]: significant reduction; also recorded: therapeutic effect
- mesenteric fat weight [5]: significant reduction; also recorded: decreased
- mice body weight [5]: significant reduction
- wet liver weight [5]: significant reduction; also recorded: decreased
